Assay results: patent US20090228996A1, “Means and Methods for influencing Interactions Between Dc-Sign and Dc-Sign Ligands” (priority 2006, published 2009)

Legend:
[1] = biological target: T1, DC-SIGN on Raji-DC-SIGN cells (Homo sapiens, UniProt Q9NNX6); assay: gp120 bead adhesion assay, Raji-DC-SIGN cells; assay type: cell-based; conditions: for binding of gp120 beads to Raji-DC-SIGN: cells pre-incubated 30 min, human milk 1/20, vs control
T1 construct: expressed in transfected cells; host or cells: Raji cells (Raji-DC-SIGN)
T1 sequence (Q9NNX6 1-404): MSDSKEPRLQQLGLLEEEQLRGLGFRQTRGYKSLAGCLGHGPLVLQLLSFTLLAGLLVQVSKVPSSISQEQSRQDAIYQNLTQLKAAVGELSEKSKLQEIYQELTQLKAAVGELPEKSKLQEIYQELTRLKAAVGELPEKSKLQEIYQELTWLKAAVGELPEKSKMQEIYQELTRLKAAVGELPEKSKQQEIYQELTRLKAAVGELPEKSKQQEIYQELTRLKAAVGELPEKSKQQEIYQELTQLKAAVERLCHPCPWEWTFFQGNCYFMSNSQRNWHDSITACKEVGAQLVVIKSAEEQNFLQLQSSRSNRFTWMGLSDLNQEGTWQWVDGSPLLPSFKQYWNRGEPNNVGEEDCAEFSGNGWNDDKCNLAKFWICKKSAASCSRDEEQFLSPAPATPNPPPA
Method: (§1) gp120 bead adhesion assay. Beads were prepared as previously described (Geijtenbeek et al, 2000 a), in short, streptavidin was covalently coupled to Carboxylate-modified TransFluoSpheres (488/645 nm, 1.0 μm; molecular probes). The steptavidin-beads were incubated with biotinylated F(ab′)2 fragment goat-anti-human IgG (6 μg/ml; Jackson Immunoresearch) and subsequently incubated overnight with gp120-Fc chimera. Fifty thousand cells, Raji-DC-SIGN cells, immature DCs or Raji-L-SIGN cells, were pre-incubated with human milk or milk compounds, AZN-D1 (Geijtenbeek et al, 2000 a), AZN-D2 (Halary et al, 2002), EGTA or mannan for 30 minutes at RT. The ligand-coated beads (20 beads/cell) were added to the pre-incubated cells and incubated for 30 minutes at 37° C. after which the cells were washed with TSM containing 0.5% BSA. After washing, the cells were resuspended in 100 μl TSM-BSA buffer and the adhesion was measured by flow cytometry (BD Biosciences).
(§2) gp120 bead adhesion assay. Beads were prepared as previously described (Geijtenbeek et al, 2000 a), in short, streptavidin was covalently coupled to Carboxylate-modified TransFluoSpheres (488/645 nm, 1.0 μm; molecular probes). The steptavidin-beads were incubated with biotinylated F(ab′)2 fragment goat-anti-human IgG (6 μg/ml; Jackson Immunoresearch) and subsequently incubated overnight with the gp120-Fc chimera. Fifty thousand cells, Raji-DC-SIGN cells or iDCs were pre-incubated with human milk, AZN-D1 (Geijtenbeek et al, 2000 a), AZN-D2 (Halary et al, 2002), EGTA or mannan for 30 minutes at RT. The ligand-coated beads (20 beads/cell) were added to the pre-incubated cells and incubated for 30 minutes at 37° C. after which the cells were washed with TSM (20 mM Tris, 150 mM NaCl, 1 mM CaCl2, 2 mM MgCl2) containing 0.5% BSA. After washing, the cells were resuspended in 100 μl TSM-BSA buffer and the adhesion was measured by flow cytometry (BD Biosciences).

DC-SIGN on iDCs = biological target: T2, DC-SIGN on iDCs (Homo sapiens, UniProt Q9NNX6); assay: gp120 bead adhesion assay, immature DCs; assay type: cell-based; conditions: for binding of gp120 beads to iDC: cells pre-incubated 30 min, human milk 1/20, vs control
T2 construct: endogenous in cells
T2 sequence (Q9NNX6 1-404): T1 sequence (Q9NNX6 1-404)
Method: as §1, §2

DC-SIGN-Fc = biological target: T3, DC-SIGN-Fc (Homo sapiens, UniProt Q9NNX6); assay: DC-SIGN-Fc binding ELISA
T3 construct: the extracellular portion of DC-SIGN (amino acids 64 to 404)
T3 sequence (Q9NNX6 64-404): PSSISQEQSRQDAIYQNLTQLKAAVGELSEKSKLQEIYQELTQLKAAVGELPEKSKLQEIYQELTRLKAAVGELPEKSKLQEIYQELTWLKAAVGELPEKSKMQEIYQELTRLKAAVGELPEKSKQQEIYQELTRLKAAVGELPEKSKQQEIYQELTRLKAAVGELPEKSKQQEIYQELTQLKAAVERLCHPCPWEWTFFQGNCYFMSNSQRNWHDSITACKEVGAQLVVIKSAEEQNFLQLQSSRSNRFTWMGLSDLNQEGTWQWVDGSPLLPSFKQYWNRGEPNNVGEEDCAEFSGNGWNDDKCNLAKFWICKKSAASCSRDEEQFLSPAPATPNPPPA
Method: DC-SIGN-Fc binding ELISA. The DC-SIGN-Fc chimera contained the extracellular portion of DC-SIGN (amino acids 64 to 404) fused at the C-terminus to a human immunoglobulin (Ig) G1 Fc fragment and has been previously described (Geijtenbeek et al, 2002). Human milk or human milk compounds were diluted in 0.2M NaHCO3, coated on ELISA plates (maxisorb plate; Nunc) and incubated overnight at 4° C. or 2 hours at 37° C. This was followed by blocking with TSM containing 1% BSA for 30 minutes at 37° C. before addition of soluble DC-SIGN-Fc (5 μg/ml) for 2 hours at RT, the binding was determined by incubation of a peroxidase labeled anti-IgG1 antibody for 30 minutes at RT. DC-SIGN-Fc binding specificity was determined by pre-incubation of the DC-SIGN-FC with either 50 μg/ml DC-SIGN specific mouse antibody AZN-D1 (Geijtenbeek et al, 2000 a) or 10 mM EGTA. Single-cycle-replication transmission assay. The assay was performed as previously described (Groot et al, 2005). In short mDCs and iDCs were incubated in a 96-well-plate (35−50×10^3 DC/well) with human milk for 30 minutes at 37° C. before addition of the virus (5 ng p24/well), which was incubated for 2 hours at 37° C. The DCs were washed twice with PBS before addition of 50×10^3 LuSIV cells. After 24 hours, LuSIV cells were harvested and resuspended in 50 μl lysis buffer (25 mM Tris-Cl 7.8, 2 mM DTT, 2 mM CDTA, 10% glycerol, 1% Triton X100). The cells were then incubated for 45 minutes at room temperature while shaking, followed by 10 minutes centrifugation at 3200×g. […]
DC-SIGN-Fc binding ELISA. […] This was followed by blocking with TSM containing 1% BSA for 30 minutes at 37° C. before addition of soluble DC-SIGN-Fc (5 μg/ml) for 2 hours at RT, the binding was determined by incubation of a peroxidase labeled anti-IgG1 antibody for 30 minutes at RT. DC-SIGN-Fc binding specificity was determined by pre-incubation of the DC-SIGN-Fc with either 50 μg/ml DC-SIGN specific mouse antibody AZN-D1 (Geijtenbeek et al, 2000 a) or 10 mM EGTA.

[2] = tested on: DC-SIGN mediated transfer of HIV-1 by Raji-DC-SIGN cells to CD4+ T-lymphocytes; assay: DC-SIGN mediated HIV-1 transfer assay (Raji-DC-SIGN transfer culture assay); assay type: cell-based; conditions: Le^x containing compounds, all at 10 μg/ml
Method: DC-SIGN mediated HIV-1 transfer assay. The Raji and Raji-DC-SIGN cells were plated at a concentration of 2×10^4 cells/well in a 96 well format. Dilutions of human milk or human milk compounds were made in PBS containing 10% FCS and spiked with 3.7log TCID50/ml of the appropriate virus before addition to the Raji-DC-SIGN cells. As controls PBS containing 10% FCS was spiked with the same TCID50/ml of the corresponding virus before addition to Raji or Raji-DC-SIGN cells. After incubation the culture was washed with PBS before addition of CD4^+ enriched T-lymphocytes at a concentration of 1×10^5 cells/well with p24 determined on day 7. DC-SIGN specific antibody binding after exposure to human milk. […] The cells were washed and resuspended in 100 μl TSM containing 0.5% bovine serum albumin, (BSA Fraction V, Fatty Acid-Free) (Calbiochem) and the adhesion was measured by flow cytometry (BD Biosciences).
DC-SIGN mediated HIV-1 transfer assay. […] After a two hour incubation the culture was washed with PBS before addition of CD4^+ enriched T-lymphocytes at a concentration of 1×10^5 cells/well with p24 values determined on day 7.

DC-SIGN [3] = biological target: T4, DC-SIGN (Homo sapiens, UniProt Q9NNX6); assay: gp120 bead adhesion assay, cells not given; assay type: cell-based; conditions: Le^x containing compounds; data not shown
T4 sequence (Q9NNX6 1-404): T1 sequence (Q9NNX6 1-404)
Method: as §1

DC-SIGN [4] = biological target: T4, DC-SIGN; conditions: literature; cited from earlier work
[5] = Example 2, protein fraction from milk S3 (C18 column) and DC-SIGN controls
[6] = major milk proteins at 1/20 dilution of physiological concentration in human milk

Compound	binding of gp120 beads to Raji-DC-SIGN [1]	gp120 binding to iDCs (DC-SIGN on iDCs; [5])	binding of gp120 beads to iDC (DC-SIGN on iDCs)	DC-SIGN mediated HIV-1 transfer [2]	interaction between DC-SIGN and gp120 (DC-SIGN [3])	further results
mannan	block binding of gp120 beads to the DC-SIGN expressing cells to the same extent as human milk	demonstrated inhibition	block binding of gp120 beads to the DC-SIGN expressing cells to the same extent as human milk	–	–	–
O=C(O)CN(CCOCCOCCN(CC(=O)O)CC(=O)O)CC(=O)O [EGTA, reference compound]	block binding of gp120 beads to the DC-SIGN expressing cells to the same extent as human milk	demonstrated inhibition	block binding of gp120 beads to the DC-SIGN expressing cells to the same extent as human milk	–	–	DC-SIGN-Fc binding to human milk after pre-incubation of DC-SIGN-Fc (DC-SIGN-Fc; 50 μg/ml AZN-D1 or 10 mM EGTA, p<0.01): completely abrogated binding
lacto-N-fucopentaose III [LNFP III, reference compound]	–	–	–	not able to prevent HIV-1 transfer	none of the tested compounds were able to block the interaction	previously shown DC-SIGN binding (DC-SIGN [4]): bind DC-SIGN
Le^x-BSA: Lewis X-BSA, 14 atom spacer (Calbiochem)	–	–	–	able to inhibit DC-SIGN mediated HIV-1 transfer	none of the tested compounds were able to block the interaction	binding to DC-SIGN-Fc (DC-SIGN-Fc; Le^x-BSA or BSA control coated): demonstrates binding to DC-SIGN-Fc
human lysozyme: major human milk protein (Sigma) [reference compound]	–	–	–	–	–	DC-SIGN-Fc binding to coated milk compound (DC-SIGN-Fc; [6]): showed no binding; gp120 binding to Raji-DC-SIGN [1, 6]: None of the tested human milk compounds could inhibit gp120 binding; gp120 binding to iDCs (DC-SIGN on iDCs; [6]): None of the tested human milk compounds could inhibit gp120 binding
